Test results published in paper PMC3045100, “Cell-Penetrating Penta-Peptides (CPP5s): Measurement of Cell Entry and Protein-Transduction Activity” (Pharmaceuticals, 2010).

Tested on: DAMI cells
Assay: Cell-penetration activity of Fam-labeled CPP5s, cellular fluorescence by FACS and/or microscopy
Assay type: cell-based, human
Details: peptides Fam-labeled on the N-terminus, 200 μM, 3 h, 37 °C, fluorescence intensity of cells by FACS, mean of triplicate samples
Procedure: Figure 1 Cell-penetration activity of CPP5s. a. List of cell-penetrating penta-peptides (CPP5s). […] Peptide sequences are color-coded to show the constant amphipathic amino acid arrangement in each CPP5. Cell-penetration activity was determined by fluorescence intensity of cells (DAMI cells: a human megakaryocytic cancer cell line) incubated with fluorescein (Fam)-labeled peptides (200 μM) for 3 h at 37 °C as described in Experimental Procedures. Fam was labeled on the N-terminus of all peptides examined. Cells were analyzed by FACS and/or microscopy. The activity of each peptide is shown as a percentage of the activity of KLPVM. Each value represents the mean of triplicate samples. Cell entry of some peptides was confirmed by microscopy only, and these peptides are indicated with a ‘+’ without a percentage value. For cytoprotective activity (right column), the information is based on previous studies and the activity was determined by the protection of cells from Bax overexpression and other apoptotic stimuli such as etoposide treatment. b to e. Cell entry of Fam-labeled VPTLK, KLPVM, TAT, and poly-arginine (R8). HeLa cells were incubated with Fam-labeled VPTLK, KLPVM (200 μM), Fam-TAT (10 μM), and Fam-R8 (10 μM) for 1 h at 37 °C. Images are at 20× magnification. f. Comparison of the cytotoxicity of CPP5 and TAT. Primary cultured mouse embryonic fibroblast (MEF) cells were treated with various concentrations of peptides for 24 h as indicated. Then, apoptosis was analyzed as described in Experimental Procedures. Each bar represents the mean of triplicate samples and standard error. TEXT PRINTED IN THE PICTURE: (a) VPMLK: Cell Penetration (%): 97 ± 4.3; Cytoprotection: + | (a) VPTLK: Cell Penetration (%): 61 ± 1.7; Cytoprotection: + | (a) VPALR: Cell Penetration (%): 79 ± 1.5; Cytoprotection: + | (a) VSALK: Cell Penetration (%): 90 ± 3; Cytoprotection: N.D. | (a) PMLKE: Cell Penetration (%): 65 ± 3.7; Cytoprotection: + | (a) VPALK: Cell Penetration (%): 71 ± 2.2; Cytoprotection: + | (a) VSLKK: Cell Penetration (%): +; Cytoprotection: - | (a) VSGKK: Cell Penetration (%): +; Cytoprotection: - | (a) KLPVM: Cell Penetration (%): 100 ± 2.3; Cytoprotection: - | (a) IPMIK: Cell Penetration (%): 47 ± 1.4; Cytoprotection: - | (a) KLGVM: Cell Penetration (%): +; Cytoprotection: - | (a) KLPVT: Cell Penetration (%): +; Cytoprotection: - | (a) VPMIK: Cell Penetration (%): +; Cytoprotection: N.D. | (a) IPALK: Cell Penetration (%): +; Cytoprotection: N.D. | (a) IPMLK: Cell Penetration (%): +; Cytoprotection: N.D. | (a) VPTLQ: Cell Penetration (%): 70 ± 4; Cytoprotection: - | (a) QLPVM: Cell Penetration (%): +; Cytoprotection: - | (a) ELPVM: Cell Penetration (%): +; Cytoprotection: - | (a) VPTLE: Cell Penetration (%): 80 ± 1.9; Cytoprotection: N.D.
CPP5s that were designed based on the Bax-binding domain of Ku70 of several species are named Bax-Inhibiting Peptides (BIPs); they are VPMLK, PMLKE, VPTLK, VPALR, and VPALK. VPMLK and PMLKE were designed from human Ku70, and the same sequence exists in the Ku70 homologues of dog and monkey. VPTLK and VPALR are based on mouse and rat Ku70, respectively. VPALK was designed from cattle Ku70, and the same sequence exists in Ku70 of the African clawed frog. Cytoprotective activities of these BIPs have been previously reported, both in cell culture and animal models. […] The observed variation in cell-entering activity of Fam-labeled-CPP5s is shown in Figure 1a as a percentage of the activity of KLPVM. In all cases, Fam was attached to the N-terminal amino acid. For some CPP5s, cell-penetration activity was confirmed by detection of an intracellular fluorescent signal by microscopy. These latter results are indicated with ‘+’ symbols, and a quantitative comparison with the activity of KLPVM was not performed. […]

Cell Penetration (%), percentage of the activity of KLPVM: 61 ± 1.7%
Substance: VPTLK
